Data on one compound can be found in ChEMBL document CHEMBL1141832, “A new discorhabdin from two sponge genera” (1999).

In brackets after ≈: the same amount, converted by molar mass.

This experiment can be described thus: Antitumor activity against human NCI60 cells. Format: functional.

For orientation: GI50 means the concentration that inhibits growth by half. Low readings indicate greater sensitivity of the cells, high ones lower sensitivity of the cells. For the compound `O=C1C=C2S[C@H]3C[C@]2(C=C1Br)C1=C(N3)C(=O)c2[nH]cc3ccnc1c23` [DISCORHABDIN Q], the GI50 is 0.5 µg/mL (≈ 1.21 µM).
